# Experimental data: patent publication US20020137929A1, “1 - (3-heterocyclylphenyl) isothiourea, -isourea, -guanidine and -amidine herbicidal agents” (Intellectual Property Department, BASF Aktiengesellschaft, priority 1998, published 2002)
# Legend:
# [1] = test system: IPOHE (Morningglory, Ivyleaf); test: Preemergence herbicidal evaluation; type: in vivo, Ipomoea hederacea; conditions: rated 4-5 weeks after treatment
# Outline: (§1)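 Sown cups got a single aqueous acetone spray of test compound (roughly 0.0156–0.500 kg/ha) before seedlings emerged. Evaluation, 4–5 weeks on, used a 0–9 visual scale covering plant stand, vigor, size, malformation, chlorosis and general appearance compared with controls.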
# ZEAMX (Corn, Field) [2] = test: Postemergence herbicidal evaluation; type: in vivo, Zea mays; conditions: postemergence
# Outline: (§2)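 Each compound, dispersed in an acetone/water mix (50/50) carrying 0.5% TWEEN 20, is nozzle-sprayed at 40 psi on approximately two-week-old seedlings at about 0.0156–0.500 kg/ha. Plants are assessed 4–5 weeks afterward on a 0–9 scale relative to control; duplicate tests are averaged.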
# ABUTH (Velvetleaf) [3] = test: Preemergence herbicidal evaluation; type: in vivo, Abutilon theophrasti; conditions: rated 4-5 weeks after treatment
# Outline: as §1
# [4] = test system: TRZAWR (Wheat, Winter, cv Riband); test: Preemergence herbicidal evaluation; type: in vivo, Triticum aestivum; conditions: rated 4-5 weeks after treatment
# Outline: as §1
# ZEAMX (Corn, Field) [5] = test: Preemergence herbicidal evaluation; type: in vivo, Zea mays; conditions: rated 4-5 weeks after treatment
# Outline: as §1
# CASOB (Sicklepod) = test: Preemergence herbicidal evaluation; type: in vivo, Cassia obtusifolia; conditions: rated 4-5 weeks after treatment
# Outline: as §1
# [6] = test system: CHEAL (Lambsquarters, Common); test: Preemergence herbicidal evaluation; type: in vivo, Chenopodium album; conditions: rated 4-5 weeks after treatment
# Outline: as §1
# [7] = test system: GLXMAW (Soybean, Williams); test: Preemergence herbicidal evaluation; type: in vivo, Glycine max, (L.) Merr. cv Williams; conditions: rated 4-5 weeks after treatment
# Outline: as §1
# ABUTH (Velvetleaf) [8] = test: Postemergence herbicidal evaluation; type: in vivo, Abutilon theophrasti; conditions: postemergence
# Outline: as §2
# ECHCG (Barnyardgrass) [9] = test: Preemergence herbicidal evaluation; type: in vivo, Echinochloa crus-galli; conditions: rated 4-5 weeks after treatment
# Outline: as §1
# SETVI (Foxtail, Green) = test: Postemergence herbicidal evaluation; type: in vivo, Setaria viridis; conditions: postemergence
# Outline: as §2
# [10] = test system: IPOHE (Morningglory, Ivyleaf); test: Postemergence herbicidal evaluation; type: in vivo, Ipomoea hederacea; conditions: postemergence
# Outline: as §2
# [11] = test system: CHEAL (Lambsquarters, Common); test: Postemergence herbicidal evaluation; type: in vivo, Chenopodium album; conditions: postemergence
# Outline: as §2
# ECHCG (Barnyardgrass) [12] = test: Postemergence herbicidal evaluation; type: in vivo, Echinochloa crus-galli; conditions: postemergence
# Outline: as §2
# ORYSAT (Rice, Tebonnet) = test: Postemergence herbicidal evaluation; type: in vivo, Oryza sativa, (L.) Tebonnet; conditions: postemergence
# Outline: as §2
smiles,measurement,setting,value
"CCOC(=O)CN1C(=O)C(Cl)SC1=Nc1cc(-n2c(=O)cc(C(F)(F)F)n(C)c2=O)c(F)cc1Cl (stereo not drawn) [Compound 126, Ethyl 5-chloro-2-{{2-chloro-5-[3,6-dihydro-3-methyl-2,6-dioxo-4-(trifluoromethyl)-1(2H)-pyrimidinyl]-4-fluorophenyl}imino}-4-oxo-3-thiazolidineacetate]",Preemergence herbicidal rating IPOHE,[1]; rate 0.0625 kg/ha,0.0
same,Preemergence herbicidal rating IPOHE,[1]; rate 0.1250 kg/ha,1.0
same,Preemergence herbicidal rating IPOHE,[1]; rate 0.2500 kg/ha,1.0
same,Preemergence herbicidal rating IPOHE,[1]; rate 0.5000 kg/ha,9.0
same,herbicidal rating ZEAMX,"ZEAMX (Corn, Field) [2]; rate 0.0156 kg/ha",4.0
same,herbicidal rating ZEAMX,"ZEAMX (Corn, Field) [2]; rate 0.0313 kg/ha",4.0
same,herbicidal rating ZEAMX,"ZEAMX (Corn, Field) [2]; rate 0.0625 kg/ha",4.5
same,herbicidal rating ZEAMX,"ZEAMX (Corn, Field) [2]; rate 0.1250 kg/ha",6.5
same,Preemergence herbicidal rating ABUTH,ABUTH (Velvetleaf) [3]; rate 0.0625 kg/ha,5.0
same,Preemergence herbicidal rating ABUTH,ABUTH (Velvetleaf) [3]; rate 0.1250 kg/ha,5.0
same,Preemergence herbicidal rating ABUTH,ABUTH (Velvetleaf) [3]; rate 0.2500 kg/ha,9.0
same,Preemergence herbicidal rating ABUTH,ABUTH (Velvetleaf) [3]; rate 0.5000 kg/ha,9.0
same,Preemergence herbicidal rating TRZAWR,[4]; rate 0.0625 kg/ha,0.0
same,Preemergence herbicidal rating TRZAWR,[4]; rate 0.1250 kg/ha,0.0
same,Preemergence herbicidal rating TRZAWR,[4]; rate 0.2500 kg/ha,0.0
same,Preemergence herbicidal rating TRZAWR,[4]; rate 0.5000 kg/ha,0.0
same,Preemergence herbicidal rating ZEAMX,"ZEAMX (Corn, Field) [5]; rate 0.0625 kg/ha",0.0
same,Preemergence herbicidal rating ZEAMX,"ZEAMX (Corn, Field) [5]; rate 0.1250 kg/ha",2.0
same,Preemergence herbicidal rating ZEAMX,"ZEAMX (Corn, Field) [5]; rate 0.2500 kg/ha",4.0
same,Preemergence herbicidal rating ZEAMX,"ZEAMX (Corn, Field) [5]; rate 0.5000 kg/ha",8.0
same,Preemergence herbicidal rating CASOB,CASOB (Sicklepod); rate 0.0625 kg/ha,0.0
same,Preemergence herbicidal rating CASOB,CASOB (Sicklepod); rate 0.1250 kg/ha,0.0
same,Preemergence herbicidal rating CASOB,CASOB (Sicklepod); rate 0.2500 kg/ha,0.0
same,Preemergence herbicidal rating CASOB,CASOB (Sicklepod); rate 0.5000 kg/ha,3.0
same,Preemergence herbicidal rating CHEAL,[6]; rate 0.0625 kg/ha,9.0
same,Preemergence herbicidal rating CHEAL,[6]; rate 0.1250 kg/ha,9.0
same,Preemergence herbicidal rating CHEAL,[6]; rate 0.2500 kg/ha,9.0
same,Preemergence herbicidal rating CHEAL,[6]; rate 0.5000 kg/ha,9.0
same,Preemergence herbicidal rating GLXMAW,[7]; rate 0.0625 kg/ha,0.0
same,Preemergence herbicidal rating GLXMAW,[7]; rate 0.1250 kg/ha,2.0
same,Preemergence herbicidal rating GLXMAW,[7]; rate 0.2500 kg/ha,3.0
same,Preemergence herbicidal rating GLXMAW,[7]; rate 0.5000 kg/ha,7.0
same,herbicidal rating ABUTH,ABUTH (Velvetleaf) [8]; rate 0.0156 kg/ha,5.0
same,herbicidal rating ABUTH,ABUTH (Velvetleaf) [8]; rate 0.0313 kg/ha,9.0
same,herbicidal rating ABUTH,ABUTH (Velvetleaf) [8]; rate 0.0625 kg/ha,9.0
same,herbicidal rating ABUTH,ABUTH (Velvetleaf) [8]; rate 0.1250 kg/ha,9.0
same,Preemergence herbicidal rating ECHCG,ECHCG (Barnyardgrass) [9]; rate 0.0625 kg/ha,0.0
same,Preemergence herbicidal rating ECHCG,ECHCG (Barnyardgrass) [9]; rate 0.1250 kg/ha,0.0
same,Preemergence herbicidal rating ECHCG,ECHCG (Barnyardgrass) [9]; rate 0.2500 kg/ha,0.0
same,Preemergence herbicidal rating ECHCG,ECHCG (Barnyardgrass) [9]; rate 0.5000 kg/ha,2.0
same,herbicidal rating SETVI,"SETVI (Foxtail, Green); rate 0.0156 kg/ha",0.0
same,herbicidal rating SETVI,"SETVI (Foxtail, Green); rate 0.0313 kg/ha",3.0
same,herbicidal rating SETVI,"SETVI (Foxtail, Green); rate 0.0625 kg/ha",3.0
same,herbicidal rating SETVI,"SETVI (Foxtail, Green); rate 0.1250 kg/ha",9.0
same,herbicidal rating IPOHE,[10]; rate 0.0156 kg/ha,9.0
same,herbicidal rating IPOHE,[10]; rate 0.0313 kg/ha,9.0
same,herbicidal rating IPOHE,[10]; rate 0.0625 kg/ha,9.0
same,herbicidal rating IPOHE,[10]; rate 0.1250 kg/ha,9.0
same,herbicidal rating CHEAL,[11]; rate 0.0156 kg/ha,4.0
same,herbicidal rating CHEAL,[11]; rate 0.0313 kg/ha,4.0
same,herbicidal rating CHEAL,[11]; rate 0.0625 kg/ha,4.0
same,herbicidal rating CHEAL,[11]; rate 0.1250 kg/ha,9.0
same,herbicidal rating ECHCG,ECHCG (Barnyardgrass) [12]; rate 0.0156 kg/ha,0.0
same,herbicidal rating ECHCG,ECHCG (Barnyardgrass) [12]; rate 0.0313 kg/ha,0.0
same,herbicidal rating ECHCG,ECHCG (Barnyardgrass) [12]; rate 0.0625 kg/ha,0.0
same,herbicidal rating ECHCG,ECHCG (Barnyardgrass) [12]; rate 0.1250 kg/ha,0.0
same,herbicidal rating ORYSAT,"ORYSAT (Rice, Tebonnet); rate 0.0156 kg/ha",0.0
same,herbicidal rating ORYSAT,"ORYSAT (Rice, Tebonnet); rate 0.0313 kg/ha",0.5
same,herbicidal rating ORYSAT,"ORYSAT (Rice, Tebonnet); rate 0.0625 kg/ha",0.5
same,herbicidal rating ORYSAT,"ORYSAT (Rice, Tebonnet); rate 0.1250 kg/ha",1.0
